Assay results reported in ChEMBL document CHEMBL4130476, “4-Alkyliden-azetidinones modified with plant derived polyphenols: Antibacterial and antioxidant properties” (2017).
Converted amounts (≈) assume the structure as drawn.

Legend:
Type in all cases: functional
Staphylococcus aureus [1] = assay: Antibacterial activity against methicillin-susceptible Staphylococcus aureus 69856 assessed as inhibition of bacterial growth incubated for 18 to 24 hrs by broth microdilution method
[2] = Antioxidant activity assessed as DPPH scavenging activity by measuring mmol of Trolox equivalent antioxidant capacity incubated for 40 mins
Staphylococcus aureus [3] = assay: Antibacterial activity against Staphylococcus aureus ATCC 29213 assessed as inhibition of bacterial growth incubated for 18 to 24 hrs by broth microdilution method
[4] = test system: Staphylococcus epidermidis; assay: Antibacterial activity against methicillin-susceptible Staphylococcus epidermidis 3226 assessed as inhibition of bacterial growth incubated for 18 to 24 hrs by broth microdilution method
Staphylococcus aureus [5] = assay: Antibacterial activity against methicillin-resistant Staphylococcus aureus 44674 assessed as inhibition of bacterial growth incubated for 18 to 24 hrs by broth microdilution method
Enterococcus faecalis [6] = assay: Antibacterial activity against Enterococcus faecalis ATCC 29212 assessed as inhibition of bacterial growth incubated for 18 to 24 hrs by broth microdilution method
Staphylococcus aureus [7] = assay: Antibacterial activity against methicillin-susceptible Staphylococcus aureus 39249 assessed as inhibition of bacterial growth incubated for 18 to 24 hrs by broth microdilution method
Enterococcus faecium = assay: Antibacterial activity against linezolid and vancomycin-resistant Enterococcus faecium VRE2 assessed as inhibition of bacterial growth incubated for 18 to 24 hrs by broth microdilution method
Staphylococcus hominis = assay: Antibacterial activity against linezolid and methicillin-resistant Staphylococcus hominis alpha26 assessed as inhibition of bacterial growth incubated for 18 to 24 hrs by broth microdilution method
Staphylococcus aureus [8] = assay: Antibacterial activity against linezolid and methicillin-resistant Staphylococcus aureus SAU-1 assessed as inhibition of bacterial growth incubated for 18 to 24 hrs by broth microdilution method
[9] = test system: Staphylococcus epidermidis; assay: Antibacterial activity against linezolid and methicillin-resistant Staphylococcus epidermidis G1027 assessed as inhibition of bacterial growth incubated for 18 to 24 hrs by broth microdilution method
Enterococcus faecalis [10] = assay: Antibacterial activity against linezolid and […] 4150 assessed as inhibition of bacterial growth incubated for 18 to 24 hrs by broth microdilution method
[11] = Antioxidant activity assessed as ABTS scavenging activity by measuring mmol of Trolox equivalent antioxidant capacity incubated for 6 mins

Row | Structure (SMILES) | MIC (Staphylococcus aureus [1]) [µg/mL] | Activity [2] [mmolequiv] | MIC (Staphylococcus aureus [3]) [µg/mL] | MIC [4] [µg/mL] | MIC (Staphylococcus aureus [5]) [µg/mL] | MIC (Enterococcus faecalis [6]) [µg/mL] | MIC (Staphylococcus aureus [7]) [µg/mL] | MIC (Enterococcus faecium) [µg/mL] | MIC (Staphylococcus hominis) [µg/mL] | MIC (Staphylococcus aureus [8]) [µg/mL] | MIC [9] [µg/mL] | MIC (Enterococcus faecalis [10]) [µg/mL] | Activity [11] [mmolequiv]
1 | C[C@@H](OC(=O)c1ccc2c(c1)OCO2)[C@H]1C(=O)N/C1=C\C(=O)OCc1ccccc1 | 8 (≈ 19.5 µM) | 0.012 | 2 (≈ 4.89 µM) | 8 (≈ 19.5 µM) | 4 (≈ 9.77 µM) | > 128 | 4 (≈ 9.77 µM) | > 128 | 4 (≈ 9.77 µM) | 2 (≈ 4.89 µM) | 4 (≈ 9.77 µM) | > 128 | –
2 | C[C@@H](OC(=O)/C=C/c1ccc(O)cc1)[C@H]1C(=O)N/C1=C\C(=O)OCc1ccccc1 | 8 (≈ 19.6 µM) | 0.003 | 8 (≈ 19.6 µM) | 8 (≈ 19.6 µM) | 4 (≈ 9.82 µM) | > 128 | 4 (≈ 9.82 µM) | > 128 | 4 (≈ 9.82 µM) | 4 (≈ 9.82 µM) | 8 (≈ 19.6 µM) | 64 (≈ 157 µM) | 0.053
3 | CN[C@H](CC(C)C)C(=O)N[C@H]1C(=O)N[C@@H](CC(N)=O)C(=O)N[C@H]2C(=O)N[C@H]3C(=O)N[C@H](C(=O)N[C@H](C(=O)O)c4cc(O)cc(O)c4-c4cc3ccc4O)[C@H](O)c3ccc(c(Cl)c3)Oc3cc2cc(c3O[C@@H]2O[C@H](CO)[C@@H](O)[C@H](O)[C@H]2O[C@H]2C[C@](C)(N)[C@H](O)[C@H](C)O2)Oc2ccc(cc2Cl)[C@H]1O [VANCOMYCIN] | – | – | – | – | – | 2 (≈ 1.38 µM) | – | > 128 | 1 (≈ 0.69 µM) | – | – | 0.25 (≈ 0.173 µM) | –
4 | C[C@@H](OC(=O)c1ccc(O)c(O)c1)[C@H]1C(=O)N/C1=C\C(=O)OCc1ccccc1 | 4 (≈ 10.1 µM) | 2.59 | 16 (≈ 40.3 µM) | 16 (≈ 40.3 µM) | 8 (≈ 20.1 µM) | 128 (≈ 322 µM) | 4 (≈ 10.1 µM) | 128 (≈ 322 µM) | > 128 | 16 (≈ 40.3 µM) | 16 (≈ 40.3 µM) | 128 (≈ 322 µM) | 1.3
5 | CO/N=C(\C(=O)N[C@@H]1C(=O)N2C(C(=O)O)=C(COC(N)=O)CS[C@H]12)c1ccco1 [CEFUROXIME] | 1 (≈ 2.36 µM) | – | 2 (≈ 4.71 µM) | 0.5 (≈ 1.18 µM) | 8 (≈ 18.9 µM) | > 128 | 2 (≈ 4.71 µM) | > 128 | 8 (≈ 18.9 µM) | > 128 | 32 (≈ 75.4 µM) | > 128 | –
6 | C[C@@H](OC(=O)c1ccc(O)cc1)[C@H]1C(=O)N/C1=C\C(=O)OCc1ccccc1 | > 128 | 0.007 | 2 (≈ 5.24 µM) | > 128 | > 128 | > 128 | > 128 | > 128 | 16 (≈ 42 µM) | 2 (≈ 5.24 µM) | > 128 | > 128 | 0.01
7 | COc1cc(/C=C/C(=O)O[C@H](C)[C@H]2C(=O)N/C2=C\C(=O)OCc2ccccc2)cc(OC)c1O | > 128 | 0.191 | > 128 | > 128 | 8 (≈ 17.1 µM) | > 128 | 8 (≈ 17.1 µM) | > 128 | 4 (≈ 8.56 µM) | 8 (≈ 17.1 µM) | > 128 | > 128 | 0.232
8 | C[C@@H](OC(=O)c1cccc2c1OCO2)[C@H]1C(=O)N/C1=C\C(=O)OCc1ccccc1 | > 128 | – | 16 (≈ 39.1 µM) | > 128 | > 128 | > 128 | > 128 | > 128 | 8 (≈ 19.5 µM) | 2 (≈ 4.89 µM) | > 128 | > 128 | –
9 | C[C@@H](OC(=O)/C=C/c1ccc(O)c(O)c1)[C@H]1C(=O)N/C1=C\C(=O)OCc1ccccc1 | > 128 | 1.67 | > 128 | > 128 | > 128 | > 128 | > 128 | > 128 | > 128 | > 128 | > 128 | > 128 | 1.03
10 | C[C@@H](OC(=O)/C=C/c1ccccc1O)[C@H]1C(=O)N/C1=C\C(=O)OCc1ccccc1 | > 128 | 0.002 | 2 (≈ 4.91 µM) | > 128 | > 128 | > 128 | > 128 | > 128 | 2 (≈ 4.91 µM) | 1 (≈ 2.45 µM) | > 128 | > 128 | 0.143
11 | COc1cc(/C=C/C(=O)O[C@H](C)[C@H]2C(=O)N/C2=C\C(=O)OCc2ccccc2)ccc1O | 8 (≈ 18.3 µM) | 0.142 | 4 (≈ 9.14 µM) | 8 (≈ 18.3 µM) | 4 (≈ 9.14 µM) | > 128 | 8 (≈ 18.3 µM) | > 128 | 4 (≈ 9.14 µM) | 4 (≈ 9.14 µM) | 4 (≈ 9.14 µM) | 8 (≈ 18.3 µM) | 0.284
12 | C[C@@H](OC(=O)/C=C/c1ccc2c(c1)OCO2)[C@H]1C(=O)N/C1=C\C(=O)OCc1ccccc1 | > 128 | – | > 128 | > 128 | > 128 | > 128 | > 128 | > 128 | 128 (≈ 294 µM) | > 128 | > 128 | > 128 | –
